Key:
Assay type in all cases: in vivo
[1] = test system: Brassica napus expressing BnaAnng01240D (SEQ ID 20) variant S1038F; test: Greenhouse herbicide tolerance, post emergent; details: 7 days after treatment
Protocol: (§1) T1/T2 transgenic plants of Brassica napus containing cellulose synthase sequences or mutated gene variants thereof are tested for improved tolerance to herbicides in greenhouse studies with azine herbicides. For the pre-emergence treatment, the herbicides are applied directly after sowing by means of finely distributing nozzles. The containers are irrigated gently to promote germination and growth and subsequently covered with transparent plastic hoods until the plants have rooted. This cover causes uniform germination of the test plants, unless this has been impaired by the herbicides. For post emergence treatment, the test plants are first grown to a height of 3 to 15 cm, depending on the plant habit, and only then treated with the herbicides. For this purpose, the test plants are either sown directly, and grown in the same containers or they are first grown separately and transplanted into the test containers a few days prior to treatment.
(§2) Herbicide injury evaluations are taken at 1, 2 and 3 weeks after treatment. Plant biomass reduction is rated on a scale of 0% to 100%, 0% being no reduction of biomass compared to untreated control, and 100% being complete absence of biomass.

[2] = test system: Brassica napus expressing BnaA01g04600D (SEQ ID 21) variant G1012R; test: Greenhouse herbicide tolerance, post emergent; details: 7 days after treatment
Protocol: as §1, §2

[3] = test system: Brassica napus expressing BnaA03g52020D (SEQ ID 15) variant G1015R; test: Greenhouse herbicide tolerance, post emergent; details: 7 days after treatment
Protocol: as §1, §2

[4] = test system: Brassica napus expressing BnaA03g55200D (SEQ ID 12) variant S1041L; test: Greenhouse herbicide tolerance, post emergent; details: 7 days after treatment
Protocol: as §1, §2

[5] = test system: Brassica napus expressing BnaA03g55200D (SEQ ID 12) variant S1038F; test: Greenhouse herbicide tolerance, post emergent; details: 7 days after treatment
Protocol: as §1, §2

Brassica napus wildtype = test: Greenhouse herbicide tolerance, post emergent; details: 7 days after treatment
Protocol: as §1, §2

[6] = test system: Brassica napus expressing BnaAnng01240D (SEQ ID 20) variant S1038F; test: 6-well plate injury test, T1 seeds on vermiculite; details: 7 days after treatment
Protocol: Transgenic Brassica napus plants are assayed for improved tolerance to azine herbicides like e. g. 6-cyclopentyl-N4-(2,3,4,5,6-pentafluorophenyl)-1,3,5-triazine-2,4-diamine in 6-well plates. Therefore, 5-6 T1 seeds are sown on vermiculite and watered with half-strength murashige skoog nutrient solution, pH 5.8 (Murashige and Skoog (1962) Physiologia Plantarum 15: 473-497). Compounds are dissolved in dimethylsulfoxid (DMSO) and added to the medium (final DMSO concentration 0.1%). Multi well plates are incubated in a growth chamber at 22° C., 75% relative humidity and 110 μmol Phot*m^−2*s^−1 with 14: 10 h light: dark photoperiod. Growth inhibition is evaluated seven to ten days after seeding in comparison to wild type plants. Plant injury is rated on a scale of 0% to 100%, 0% being no injury and 100% being complete death.

[7] = test system: Arabidopsis thaliana expressing AtCesA1_wt (SEQ ID 1); test: 48-well plate growth inhibition, T2 seeds, tolerance factor; details: based on IC50 values of growth inhibition, seven to ten days after seeding
Protocol: (§3) Transgenic Arabidopsis thaliana plants (T2) are assayed for improved tolerance to azine herbicides like e. g. 6-cyclopentyl-N4-(2,3,4,5,6-pentafluorophenyl)-1,3,5-triazine-2,4-diamine in 48-well plates. Therefore, T2 seeds are surface sterilized by stirring for 5 min in ethanol+water (70+30 by volume), rinsing one time with ethanol+water (70+30 by volume) and two times with sterile, deionized water. The seeds are resuspended in 0.1% agar dissolved in water (w/v) Four to five seeds per well are plated on solid nutrient medium consisting of half-strength murashige skoog nutrient solution, pH 5.8 (Murashige and Skoog (1962) Physiologia Plantarum 15: 473-497). Compounds are dissolved in dimethylsulfoxid (DMSO) and added to the medium prior solidification (final DMSO concentration 0.1%). Multi well plates are incubated in a growth chamber at 22° C., 75% relative humidity and 110 μmol Phot*m^−2*s^−1 with 14:10 h light:dark photoperiod. Growth inhibition is evaluated seven to ten days after seeding in comparison to wild type plants. Tolerance factors are calculated based on IC50 values of growth inhibition of transformed versus non-transformed Arabidopsis plants.

[8] = test system: Arabidopsis thaliana expressing AtCesA3_S983F_S1037F (SEQ ID 3); test: as above; details: based on IC50 values of growth inhibition, seven to ten days after seeding
Protocol: as §3

[9] = test system: Arabidopsis thaliana expressing AtCesA3_wt (SEQ ID 3); test: as above; details: based on IC50 values of growth inhibition, seven to ten days after seeding
Protocol: as §3

[10] = test system: Arabidopsis thaliana expressing AtCesA1_P1010L_G1013R (SEQ ID 1); test: as above; details: based on IC50 values of growth inhibition, seven to ten days after seeding
Protocol: as §3

[11] = test system: Arabidopsis thaliana expressing AtCesA1_G1009D_G1013R (SEQ ID 1); test: as above; details: based on IC50 values of growth inhibition, seven to ten days after seeding
Protocol: as §3

[12] = test system: Arabidopsis thaliana expressing AtCesA3_S983F_S1040L (SEQ ID 3); test: as above; details: based on IC50 values of growth inhibition, seven to ten days after seeding
Protocol: as §3

[13] = BnaAnng01240D S1038F event 1, 5*10^-8M
[14] = BnaAnng01240D S1038F event 1, 10^-6M
[15] = BnaAnng01240D S1038F event 1, 10^-7M
[16] = BnaAnng01240D S1038F event 1, 10^-8M

Work on Nc1nc(Nc2c(F)c(F)c(F)c(F)c2F)nc(C2CCCC2)n1 [6-cyclopentyl-N4-(2,3,4,5,6-pentafluorophenyl)-1,3,5-triazine-2,4-diamine] yielded an average phytotox value ([1]; 1st listed line, 3.9 g/ha) of 1%, an average phytotox value ([1]; 1st listed line, 7.8 g/ha) of 5% and an average phytotox value ([1]; 1st listed line, 15.6 g/ha) of 8%. The average phytotox value ([1]; 1st listed line, 31.25 g/ha) was 27%, the average phytotox value ([1]; 2nd listed line, 3.9 g/ha) was 1% and the average phytotox value ([1]; 2nd listed line, 7.8 g/ha) was 10%. The average phytotox value ([1]; 2nd listed line, 15.6 g/ha) was 41%, the average phytotox value ([1]; 2nd listed line, 31.25 g/ha) was 50% and the average phytotox value ([2]; 3.9 g/ha) was 17%. The average phytotox value ([2]; 7.8 g/ha) was 35%, the average phytotox value ([2]; 15.6 g/ha) was 35% and the average phytotox value ([2]; 31.25 g/ha) was 60%. It also gave an average phytotox value ([3]; 1st listed line, 3.9 g/ha) of 18%, an average phytotox value ([3]; 1st listed line, 7.8 g/ha) of 43% and an average phytotox value ([3]; 1st listed line, 15.6 g/ha) of 41%. It also gave an average phytotox value ([3]; 1st listed line, 31.25 g/ha) of 53%, an average phytotox value ([3]; 2nd listed line, 3.9 g/ha) of 37% and an average phytotox value ([3]; 2nd listed line, 7.8 g/ha) of 61%. It also gave an average phytotox value ([3]; 2nd listed line, 15.6 g/ha) of 45%, an average phytotox value ([3]; 2nd listed line, 31.25 g/ha) of 67% and an average phytotox value ([4]; 3.9 g/ha) of 15%. The average phytotox value ([4]; 7.8 g/ha) was 27%, the average phytotox value ([4]; 15.6 g/ha) was 42% and the average phytotox value ([4]; 31.25 g/ha) was 51%. It also gave an average phytotox value ([5]; 1st listed line, 3.9 g/ha) of 23%, an average phytotox value ([5]; 1st listed line, 7.8 g/ha) of 25% and an average phytotox value ([5]; 1st listed line, 15.6 g/ha) of 29%. For the same molecule, the average phytotox value ([5]; 1st listed line, 31.25 g/ha) was 34%, the average phytotox value ([5]; 2nd listed line, 3.9 g/ha) was 7% and the average phytotox value ([5]; 2nd listed line, 7.8 g/ha) was 19%. For the same molecule, the average phytotox value ([5]; 2nd listed line, 15.6 g/ha) was 20%, the average phytotox value ([5]; 2nd listed line, 31.25 g/ha) was 44% and the average phytotox value (Brassica napus wildtype; 3.9 g/ha) was 23%. The average phytotox value (Brassica napus wildtype; 7.8 g/ha) was 34%, the average phytotox value (Brassica napus wildtype; 15.6 g/ha) was 59% and the average phytotox value (Brassica napus wildtype; 31.25 g/ha) was 73%. It also gave an average phytotox value [6, 13] of 50%, an average phytotox value [6, 14] of 80% and an average phytotox value [6, 15] of 60%. It also gave an average phytotox value [6, 16] of 0%, an average phytotox value ([6]; BnaAnng01240D S1038F event 1, 10^-9M) of 0% and an average phytotox value ([6]; BnaAnng01240D S1038F event 2, 5*10^-8M) of 65%. For the same molecule, the average phytotox value ([6]; BnaAnng01240D S1038F event 2, 10^-6M) was 80%, the average phytotox value ([6]; BnaAnng01240D S1038F event 2, 10^-7M) was 65% and the average phytotox value ([6]; BnaAnng01240D S1038F event 2, 10^-8M) was 0%. The average phytotox value ([6]; BnaAnng01240D S1038F event 2, 10^-9M) was 0%, the “Relative tolerance rate as compared to non-transgenic Arabidopsis plants (non-transgenic = 1.0)” value (“Relative tolerance rate … (non-transgenic = 1.0)” below) [7] was 1 and the “Relative tolerance rate … (non-transgenic = 1.0)” value [8] was 10. For the same molecule, the “Relative tolerance rate … (non-transgenic = 1.0)” value [9] was 1, the “Relative tolerance rate … (non-transgenic = 1.0)” value [10] was 30 and the “Relative tolerance rate … (non-transgenic = 1.0)” value [11] was 1. The “Relative tolerance rate … (non-transgenic = 1.0)” value [12] was 10.

Nc1nc(Nc2nc(F)c(F)c(Cl)c2F)nc(C2(F)CCCC2)n1 [N2-(4-chloro-3,5,6-trifluoro-2-pyridyl)-6-(1-fluorocyclopentyl)-1,3,5-triazine-2,4-diamine] showed an average phytotox value ([1]; 1st listed line, 7.8 g/ha) of 7%, an average phytotox value ([1]; 1st listed line, 15.6 g/ha) of 17% and an average phytotox value ([1]; 1st listed line, 31.25 g/ha) of 47%. It also gave an average phytotox value ([1]; 1st listed line, 62.5 g/ha) of 54%, an average phytotox value ([1]; 2nd listed line, 7.8 g/ha) of 10% and an average phytotox value ([1]; 2nd listed line, 15.6 g/ha) of 33%. It also gave an average phytotox value ([1]; 2nd listed line, 31.25 g/ha) of 68%, an average phytotox value ([1]; 2nd listed line, 62.5 g/ha) of 71% and an average phytotox value ([2]; 7.8 g/ha) of 34%. For the same molecule, the average phytotox value ([2]; 15.6 g/ha) was 61%, the average phytotox value ([2]; 31.25 g/ha) was 65% and the average phytotox value ([2]; 62.5 g/ha) was 72%. The average phytotox value ([3]; 1st listed line, 7.8 g/ha) was 34%, the average phytotox value ([3]; 1st listed line, 15.6 g/ha) was 43% and the average phytotox value ([3]; 1st listed line, 31.25 g/ha) was 50%. It also gave an average phytotox value ([3]; 1st listed line, 62.5 g/ha) of 73%, an average phytotox value ([3]; 2nd listed line, 7.8 g/ha) of 16% and an average phytotox value ([3]; 2nd listed line, 15.6 g/ha) of 41%. For the same molecule, the average phytotox value ([3]; 2nd listed line, 31.25 g/ha) was 62%, the average phytotox value ([3]; 2nd listed line, 62.5 g/ha) was 72% and the average phytotox value ([4]; 7.8 g/ha) was 24%. It also gave an average phytotox value ([4]; 15.6 g/ha) of 53%, an average phytotox value ([4]; 31.25 g/ha) of 62% and an average phytotox value ([4]; 62.5 g/ha) of 76%. It also gave an average phytotox value ([5]; 1st listed line, 7.8 g/ha) of 8%, an average phytotox value ([5]; 1st listed line, 15.6 g/ha) of 6% and an average phytotox value ([5]; 1st listed line, 31.25 g/ha) of 47%. The average phytotox value ([5]; 1st listed line, 62.5 g/ha) was 54%, the average phytotox value ([5]; 2nd listed line, 7.8 g/ha) was 21% and the average phytotox value ([5]; 2nd listed line, 15.6 g/ha) was 51%. It also gave an average phytotox value ([5]; 2nd listed line, 31.25 g/ha) of 47%, an average phytotox value ([5]; 2nd listed line, 62.5 g/ha) of 68% and an average phytotox value (Brassica napus wildtype; 7.8 g/ha) of 42%. For the same molecule, the average phytotox value (Brassica napus wildtype; 15.6 g/ha) was 56%, the average phytotox value (Brassica napus wildtype; 31.25 g/ha) was 70% and the average phytotox value (Brassica napus wildtype; 62.5 g/ha) was 83%. It also gave an average phytotox value ([6]; BnaAnng01240D S1038F event 1, 5*10-7) of 30%, an average phytotox value [6, 13] of 5% and an average phytotox value [6, 14] of 85%. For the same molecule, the average phytotox value [6, 15] was 30%, the average phytotox value [6, 16] was 0% and the “Relative tolerance rate … (non-transgenic = 1.0)” value [7] was 2. For the same molecule, the “Relative tolerance rate … (non-transgenic = 1.0)” value [8] was 5, the “Relative tolerance rate … (non-transgenic = 1.0)” value [9] was 1 and the “Relative tolerance rate … (non-transgenic = 1.0)” value [10] was 1. The “Relative tolerance rate … (non-transgenic = 1.0)” value [11] was 1 and the “Relative tolerance rate … (non-transgenic = 1.0)” value [12] was 4.
